Experimental data reported in patent US8835432B2, “Heterocyclic compounds and their uses” (Amgen Inc., priority 2012, dated 2014).

Assays:
[1] = system: model of systemic lupus erythematosis; conditions: in vivo; cited from earlier work
[2] = system: mouse model of rheumatoid arthritis; conditions: in vivo; cited from earlier work
[3] = target: T1, PI3Ka (Homo sapiens, UniProt P42336); test: In vitro enzyme assay, PI3K alpha; assay type: biochemical; conditions: for PI3K: a/d: ratio of alpha to delta IC50
T1 construct: Full length p110 subunits of PI3k α, β and δ, N-terminally labeled with polyHis tag; polyHis (N); made in house; host or cells: Sf9 insect cells (baculovirus)
Description: (§1) Full length p110 subunits of PI3k α, β and δ, N-terminally labeled with polyHis tag, were coexpressed with p85 with Baculo virus expression vectors in sf9 insect cells. P110/p85 heterodimers were purified by sequential Ni-NTA, Q-HP, Superdex-100 chromatography. Purified α, β and δ isozymes were stored at −20° C. in 20 mM Tris, pH 8, 0.2M NaCl, 50% glycerol, 5 mM DTT, 2 mM Na cholate. Truncated PI3Kγ, residues 114-1102, N-terminally labeled with polyHis tag, was expressed with Baculo virus in Hi5 insect cells. The γ isozyme was purified by sequential Ni-NTA, Superdex-200, Q-HP chromatography. The γ isozyme was stored frozen at −80° C. in NaH2PO4, pH 8, 0.2M NaCl, 1% ethylene glycol, 2 mM β-mercaptoethanol.
(§2) Assays were performed in 25 μL with the above final concentrations of components in white polyproplyene plates (Costar 3355). Phospatidyl inositol phosphoacceptor, PtdIns(4,5)P2 P4508, was from Echelon Biosciences. The ATPase activity of the alpha and gamma isozymes was not greatly stimulated by PtdIns(4,5)P2 under these conditions and was therefore omitted from the assay of these isozymes. Test compounds were dissolved in dimethyl sulfoxide and diluted with three-fold serial dilutions. The compound in DMSO (1 μL) was added per test well, and the inhibition relative to reactions containing no compound, with and without enzyme was determined After assay incubation at rt, the reaction was stopped and residual ATP determined by addition of an equal volume of a commercial ATP bioluminescence kit (Perkin Elmer EasyLite) according to the manufacturer's instructions, and detected using a AnalystGT luminometer.

[4] = system: pAKT; test: pAKT in vivo assay; conditions: mice, p.o.; for in vivo pAKT data, ED50 (uM) WB: first value of the cell; for in vivo pAKT data, ED50 (uM) spleenocytes: second value of the cell
Description: Vehicle and compounds are administered p.o. (0.2 mL) by gavage (Oral Gavage Needles Popper & Sons, New Hyde Park, N.Y.) to mice (Transgenic Line 3751, female, 10-12 wks Amgen Inc, Thousand Oaks, Calif.) 15 min prior to the injection i.v (0.2 mLs) of anti-IgM FITC (50 ug/mouse) (Jackson Immuno Research, West Grove, Pa.). After 45 min the mice are sacrificed within a CO2 chamber. Blood is drawn via cardiac puncture (0.3 mL) (1cc 25 g Syringes, Sherwood, St. Louis, Mo.) and transferred into a 15 mL conical vial (Nalge/Nunc International, Denmark). Blood is immediately fixed with 6.0 mL of BD Phosflow Lyse/Fix Buffer (BD Bioscience, San Jose, Calif.), inverted 3X's and placed in 37° C. water bath. Half of the spleen is removed and transferred to an eppendorf tube containing 0.5 mL of PBS (Invitrogen Corp, Grand Island, N.Y.). The spleen is crushed using a tissue grinder (Pellet Pestle, Kimble/Kontes, Vineland, N.J.) and immediately fixed with 6.0 mL of BD Phosflow Lyse/Fix buffer, inverted 3X's and placed in 37° C. water bath. Once tissues have been collected the mouse is cervically-dislocated and carcass to disposed. After 15 min, the 15 mL conical vials are removed from the 37° C. water bath and placed on ice until tissues are further processed. Crushed spleens are filtered through a 70 μm cell strainer (BD Bioscience, Bedford, Mass.) into another 15 mL conical vial and washed with 9 mL of PBS. Splenocytes and blood are spun @ 2,000 rpms for 10 min (cold) and buffer is aspirated. Cells are resuspended in 2.0 mL of cold (−20° C.) 90% methyl alcohol (Mallinckrodt Chemicals, Phillipsburg, N.J.). MeOH is slowly added while conical vial is rapidly vortexed. Tissues are then stored at −20° C. until cells can be stained for FACS analysis.

[5] = target: T2, PI3K d (Homo sapiens, UniProt O00329); test: In vitro enzyme assay, PI3K delta; assay type: biochemical
T2 construct: Full length p110 subunits of PI3k α, β and δ, N-terminally labeled with polyHis tag; polyHis (N); made in house; host or cells: Sf9 insect cells (baculovirus)
Description: as §1, §2

[6] = system: mu splenocytes pAKT; test: on target anti-IgM mu splenocytes pAKT; assay type: cell-based; conditions: Mus musculus, Splenocyte, read-out: on target anti-IgM mu splenocytes pAKT (Hu splenocytes PAKT)
[7] = target: T3, PI3Kg (Homo sapiens, UniProt P48736); test: In vitro enzyme assay, PI3K gamma; assay type: biochemical; conditions: for PI3K: g/d: ratio of gamma to delta IC50
T3 construct: Truncated PI3Kγ, residues 114-1102, N-terminally labeled with polyHis tag; polyHis (N); made in house; host or cells: Hi5 insect cells (baculovirus)
Description: as §1, §2

[8] = target: T4, PI3Kb (Homo sapiens, UniProt P42338); test: Forkhead translocation assay (MDA MB468 Forkhead-DiversaGFP cells); assay type: cell-based; design: endogenous in cells; host or cells: MDA MB468 (Forkhead-DiversaGFP) cells; conditions: first value of the cell; MDA468 forkhead; read-out: PI3KbMDA468 FH
Description: (§3) GFP Assays for Detecting Inhibition of Class Ia and Class III PI3K
Forkhead (FKHRL1) is a substrate for AKT1. It is cytoplasmic when phosphorylated by AKT (survival/growth). Inhibition of AKT (stasis/apoptosis)-forkhead translocation to the nucleus
Forkhead Translocation Assay (MDA MB468 Forkhead-DiversaGFP Cells)
Treat cells with compound in growth medium 1 h. Fix and image.

[9] = target: T4, PI3Kb; test: In vitro enzyme assay, PI3K beta; assay type: biochemical; design: Full length p110 subunits of PI3k α, β and δ, N-terminally labeled with polyHis tag; polyHis (N); made in house; host or cells: Sf9 insect cells (baculovirus); conditions: read-out: P13K b IC50
Description: as §1, §2

[10] = system: PI3K b; test: In vitro enzyme assay, PI3K beta; assay type: biochemical; conditions: ratio of beta to delta IC50
Description: as §1, §2

[11] = target: T4, PI3Kb; test: PI3Kb MB MDA468 cell assay; assay type: cell-based; design: endogenous in cells; host or cells: MDA MB468 (Forkhead-DiversaGFP) cells; conditions: second value of the cell; read-out: PI3KbMBMDA468
[12] = target: T5, PI3KIII (Homo sapiens, UniProt Q8NEB9); test: Class III PI(3)P assay (U20S EGFP-2XFYVE cells); assay type: cell-based
T5 construct: host or cells: U2OS EGFP-2XFYVE cells
Description: as §3
FYVE domains bind to PI(3)P. the majority is generated by constitutive action of PI3K Class III
Class III PI(3)P assay (U20S EGFP-2XFYVE Cells/GE Healthcare)
Wash cells with assay buffer. Treat with compounds in assay buffer 1 h. Fix and image.
Control for all 3 assays is […] Wortmannin:
PI(3)P depleted from endosomes

[13] = target: p110δ (Homo sapiens, UniProt O00329); conditions: cited from earlier work
[14] = system: protein kinases; conditions: cited from earlier work
[15] = system: murine model of asthma; conditions: ovalbumin-induced airway inflammation; cited from earlier work

T2 sequence (O00329 whole entry): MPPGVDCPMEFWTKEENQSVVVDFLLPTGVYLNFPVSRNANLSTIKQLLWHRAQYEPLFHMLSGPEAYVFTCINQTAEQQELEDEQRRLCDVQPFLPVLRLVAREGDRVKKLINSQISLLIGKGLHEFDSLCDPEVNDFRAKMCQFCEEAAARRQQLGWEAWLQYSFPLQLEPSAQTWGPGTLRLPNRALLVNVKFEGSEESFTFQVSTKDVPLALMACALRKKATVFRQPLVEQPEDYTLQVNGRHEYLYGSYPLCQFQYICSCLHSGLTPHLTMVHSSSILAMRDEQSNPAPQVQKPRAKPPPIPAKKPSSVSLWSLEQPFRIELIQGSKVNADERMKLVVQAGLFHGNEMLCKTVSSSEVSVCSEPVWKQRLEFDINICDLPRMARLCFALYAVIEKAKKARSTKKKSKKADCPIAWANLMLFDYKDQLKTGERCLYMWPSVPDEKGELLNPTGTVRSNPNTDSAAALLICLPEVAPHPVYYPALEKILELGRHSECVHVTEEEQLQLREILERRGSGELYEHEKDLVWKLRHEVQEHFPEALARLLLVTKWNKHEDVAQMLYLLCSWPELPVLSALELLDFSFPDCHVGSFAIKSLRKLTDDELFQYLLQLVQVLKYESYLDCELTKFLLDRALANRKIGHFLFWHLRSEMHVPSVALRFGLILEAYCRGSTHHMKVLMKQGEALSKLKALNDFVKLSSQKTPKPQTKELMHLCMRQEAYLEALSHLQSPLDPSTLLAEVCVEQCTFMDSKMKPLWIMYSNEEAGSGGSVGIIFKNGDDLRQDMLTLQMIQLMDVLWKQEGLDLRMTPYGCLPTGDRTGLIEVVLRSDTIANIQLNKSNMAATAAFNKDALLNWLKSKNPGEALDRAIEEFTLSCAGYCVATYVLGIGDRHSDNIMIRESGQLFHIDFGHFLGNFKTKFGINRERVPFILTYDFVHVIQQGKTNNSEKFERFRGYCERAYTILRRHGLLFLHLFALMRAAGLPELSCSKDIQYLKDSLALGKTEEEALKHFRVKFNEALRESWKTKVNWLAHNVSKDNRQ
T2 sequence (P27986 whole entry partner): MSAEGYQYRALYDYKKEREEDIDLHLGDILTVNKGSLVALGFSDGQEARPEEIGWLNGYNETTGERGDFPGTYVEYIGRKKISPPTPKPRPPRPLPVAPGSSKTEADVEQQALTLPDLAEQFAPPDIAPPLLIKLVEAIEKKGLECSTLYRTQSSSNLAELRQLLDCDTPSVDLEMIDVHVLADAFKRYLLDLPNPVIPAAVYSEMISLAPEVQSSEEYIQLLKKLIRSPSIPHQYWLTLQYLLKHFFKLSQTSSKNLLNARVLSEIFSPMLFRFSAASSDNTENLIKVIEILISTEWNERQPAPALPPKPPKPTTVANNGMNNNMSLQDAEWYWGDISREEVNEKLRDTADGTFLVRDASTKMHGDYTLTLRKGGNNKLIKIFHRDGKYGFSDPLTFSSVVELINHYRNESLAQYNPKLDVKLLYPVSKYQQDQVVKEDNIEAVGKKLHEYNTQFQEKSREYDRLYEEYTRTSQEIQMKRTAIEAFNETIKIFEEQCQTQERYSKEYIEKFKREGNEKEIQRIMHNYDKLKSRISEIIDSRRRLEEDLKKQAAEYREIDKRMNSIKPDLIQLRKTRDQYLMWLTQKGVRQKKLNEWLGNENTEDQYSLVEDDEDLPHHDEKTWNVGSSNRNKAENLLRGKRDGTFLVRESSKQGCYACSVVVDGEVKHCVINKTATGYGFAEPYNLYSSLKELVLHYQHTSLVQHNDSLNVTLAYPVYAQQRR
Sequence of p110δ (O00329 whole entry, species assumed): as the sequence (O00329 whole entry) above
T5 sequence (Q8NEB9 whole entry): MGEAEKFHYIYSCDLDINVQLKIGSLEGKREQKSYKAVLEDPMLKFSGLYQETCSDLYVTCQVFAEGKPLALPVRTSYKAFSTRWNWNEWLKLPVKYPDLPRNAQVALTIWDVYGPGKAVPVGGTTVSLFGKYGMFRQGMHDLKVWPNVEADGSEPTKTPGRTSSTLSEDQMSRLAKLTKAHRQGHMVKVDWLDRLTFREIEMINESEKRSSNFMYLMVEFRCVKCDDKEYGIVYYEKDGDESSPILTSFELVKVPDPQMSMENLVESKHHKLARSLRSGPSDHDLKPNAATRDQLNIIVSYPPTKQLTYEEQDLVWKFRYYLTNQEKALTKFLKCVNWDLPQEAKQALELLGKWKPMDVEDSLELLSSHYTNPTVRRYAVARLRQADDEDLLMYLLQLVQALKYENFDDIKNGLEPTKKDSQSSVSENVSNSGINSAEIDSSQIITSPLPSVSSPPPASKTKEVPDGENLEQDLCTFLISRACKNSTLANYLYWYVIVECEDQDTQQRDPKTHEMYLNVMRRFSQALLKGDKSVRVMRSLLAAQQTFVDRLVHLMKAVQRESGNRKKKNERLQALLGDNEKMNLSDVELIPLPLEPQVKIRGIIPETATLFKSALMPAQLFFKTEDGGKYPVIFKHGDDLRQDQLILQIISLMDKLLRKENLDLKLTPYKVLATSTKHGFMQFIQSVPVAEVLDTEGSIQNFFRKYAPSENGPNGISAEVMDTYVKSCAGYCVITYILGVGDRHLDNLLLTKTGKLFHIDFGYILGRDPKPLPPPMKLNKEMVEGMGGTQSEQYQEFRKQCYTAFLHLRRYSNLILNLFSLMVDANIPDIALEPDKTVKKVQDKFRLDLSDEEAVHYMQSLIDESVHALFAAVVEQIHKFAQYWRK
T1 sequence (P42336 whole entry): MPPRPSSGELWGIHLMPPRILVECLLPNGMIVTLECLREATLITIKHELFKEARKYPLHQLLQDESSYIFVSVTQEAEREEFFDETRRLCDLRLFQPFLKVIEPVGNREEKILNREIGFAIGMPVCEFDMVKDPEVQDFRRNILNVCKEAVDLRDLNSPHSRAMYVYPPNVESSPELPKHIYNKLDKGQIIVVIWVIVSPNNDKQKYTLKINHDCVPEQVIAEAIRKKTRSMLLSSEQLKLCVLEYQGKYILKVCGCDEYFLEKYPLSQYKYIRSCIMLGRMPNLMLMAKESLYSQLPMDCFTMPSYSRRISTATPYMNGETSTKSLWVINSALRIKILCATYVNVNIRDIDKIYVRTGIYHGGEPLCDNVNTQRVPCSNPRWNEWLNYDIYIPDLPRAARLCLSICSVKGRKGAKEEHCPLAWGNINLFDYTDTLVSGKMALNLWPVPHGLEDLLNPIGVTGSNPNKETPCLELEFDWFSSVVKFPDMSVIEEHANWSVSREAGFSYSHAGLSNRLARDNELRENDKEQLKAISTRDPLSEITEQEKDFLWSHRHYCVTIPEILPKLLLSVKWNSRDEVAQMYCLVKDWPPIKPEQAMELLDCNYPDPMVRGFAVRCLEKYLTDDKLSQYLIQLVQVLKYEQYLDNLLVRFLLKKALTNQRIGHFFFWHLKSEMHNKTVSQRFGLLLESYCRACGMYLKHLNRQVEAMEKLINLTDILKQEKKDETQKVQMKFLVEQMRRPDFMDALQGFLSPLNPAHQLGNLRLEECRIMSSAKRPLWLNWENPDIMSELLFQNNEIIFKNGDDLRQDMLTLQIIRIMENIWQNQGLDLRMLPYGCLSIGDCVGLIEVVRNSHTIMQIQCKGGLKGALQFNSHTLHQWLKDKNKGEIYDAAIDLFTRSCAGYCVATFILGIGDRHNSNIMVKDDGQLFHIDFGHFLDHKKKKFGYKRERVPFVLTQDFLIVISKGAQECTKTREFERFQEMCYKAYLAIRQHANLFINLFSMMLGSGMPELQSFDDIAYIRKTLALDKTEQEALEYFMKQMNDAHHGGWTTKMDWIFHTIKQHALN
T1 sequence (P27986 whole entry partner): as the sequence (P27986 whole entry partner) above
T3 sequence (P48736 114-1102): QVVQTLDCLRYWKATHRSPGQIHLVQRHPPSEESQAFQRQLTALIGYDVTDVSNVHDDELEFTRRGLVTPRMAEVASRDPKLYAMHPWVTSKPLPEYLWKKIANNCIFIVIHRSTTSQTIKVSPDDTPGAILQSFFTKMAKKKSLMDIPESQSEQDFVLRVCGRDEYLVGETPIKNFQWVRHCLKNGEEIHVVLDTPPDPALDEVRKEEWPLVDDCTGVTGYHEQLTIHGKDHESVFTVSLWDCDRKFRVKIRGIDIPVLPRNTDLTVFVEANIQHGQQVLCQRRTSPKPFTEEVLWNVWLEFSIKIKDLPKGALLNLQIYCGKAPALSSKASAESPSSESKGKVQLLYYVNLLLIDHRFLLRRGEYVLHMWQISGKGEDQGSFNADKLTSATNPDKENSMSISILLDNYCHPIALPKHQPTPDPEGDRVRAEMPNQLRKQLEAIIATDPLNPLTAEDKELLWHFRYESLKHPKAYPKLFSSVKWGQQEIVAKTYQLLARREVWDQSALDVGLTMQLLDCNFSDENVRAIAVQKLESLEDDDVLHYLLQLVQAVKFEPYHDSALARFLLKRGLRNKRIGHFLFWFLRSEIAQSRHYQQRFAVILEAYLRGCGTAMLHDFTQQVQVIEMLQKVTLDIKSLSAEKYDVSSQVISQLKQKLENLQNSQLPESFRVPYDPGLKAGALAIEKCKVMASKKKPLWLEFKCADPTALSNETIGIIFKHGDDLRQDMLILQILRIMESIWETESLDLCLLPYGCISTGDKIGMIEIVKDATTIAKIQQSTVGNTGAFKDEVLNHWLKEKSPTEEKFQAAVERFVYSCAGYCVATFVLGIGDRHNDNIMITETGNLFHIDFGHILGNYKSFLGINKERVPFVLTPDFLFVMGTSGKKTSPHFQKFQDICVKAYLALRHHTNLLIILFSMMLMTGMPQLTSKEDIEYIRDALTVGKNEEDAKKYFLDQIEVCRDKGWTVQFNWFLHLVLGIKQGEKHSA

SMILES | PI3Ka IC50 [3] | PI3K: a/d [3] | in vivo pAKT data, ED50 (uM) WB [4] | in vivo pAKT data, ED50 (uM) spleenocytes [4] | IC50 [5] | IC50 [6] | IC50 [7] | PI3K: g/d [7] | IC50 [8] | IC50 [9] | PI3K: b/d [10] | IC50 [11] | IC50 [12] | also measured
O=C1NC(=O)/C(=C\c2ccc3nccnc3c2)S1 [AS 605240] |  |  |  |  |  |  |  |  |  |  |  |  |  | onset of disease in a model of systemic lupus erythematosis [1]: delay onset of disease; efficacy in a mouse model of rheumatoid arthritis [2]: efficacious
C[C@H](Nc1ncnc(N)c1C#N)c1nc2cccc(Cl)c2nc1-c1ccccc1S(C)(=O)=O [Example 5, (S)-4-amino-6-((1-(5-chloro-3-(2-(methylsulfonyl)phenyl)quinoxalin-2-yl)-ethyl)amino)pyrimidine-5-carbonitrile] | 5160 nM | 1985 | 0.056 uM | 0.012 uM | 2.6 nM | 5 nM | 620 nM | 238 | > 10000 nM | 652 nM | 251 | > 10000 nM | > 10000 nM | 
C[C@H](Nc1ncnc(N)c1C#N)c1cc2ccc(F)cc2nc1-c1cccc(F)c1 [Example 3, 4-amino-6-((S)-1-(7-fluoro-2-(3-fluorophenyl)quinolin-3-yl)ethylamino)-pyrimidine-5-carbonitrile] | 3420 nM | 671 |  |  | 5.1 nM | 1.5 nM | 62.9 nM | 12 | 3800 nM | 434 nM | 85 | 483 nM | > 10000 nM | 
Cc1ccccc1-n1c(Cn2cnc3c(N)ncnc32)nc2cccc(C)c2c1=O [IC87114] |  |  |  |  |  |  |  |  |  |  |  |  |  | inhibits p110δ [13]: high nanomolar range (triple digit); selectivity against p110α ([13]; delta versus p110α): greater than 100 fold; selective against p110β ([13]; delta versus p110β): 52 fold; selectivity against p110γ ([13]; delta versus p110γ): approx. 8 fold; activity against any protein kinases tested [14]: no activity; inflammation and disease in a murine model of asthma [15]: significantly ameliorate inflammation and disease
C[C@H](Nc1ncnc(N)c1C#N)c1cc2cccc(F)c2nc1-c1ccccc1S(C)(=O)=O [Example 1, 4-amino-6-(((1S)-1-(8-fluoro-2-(2-(methylsulfonyl)phenyl)-3-quinolinyl)-ethyl)amino)-5-pyrimidinecarbonitrile] | 9980 nM | 3327 | 0.041 uM | 0.010 uM | 3 nM | 2.2 nM | 1610 nM | 537 | 5970 nM | 4740 nM | 1580 | 2600 nM | > 10000 nM | 
C[C@H](Nc1ncnc(N)c1C#N)c1cc2ccc(F)cc2nc1-c1ccccn1 [Example 4, 4-amino-6-((S)-1-(7-fluoro-2-(pyridin-2-yl)quinolin-3-yl)ethylamino)-pyrimidine-5-carbonitrile] | 12060 nM | 1206 |  |  | 10 nM | 1.8 nM | 448 nM | 45 | 1950 nM | 522 nM | 52 | 620 nM | > 10000 nM | 
C[C@H](Nc1ncnc(N)c1C#N)c1nc2cccc(C#N)c2nc1-c1ccccc1S(C)(=O)=O [Example 6, 2-((S)-1-(6-amino-5-cyanopyrimidin-4-ylamino)ethyl)-3-(2-(methylsulfonyl)-phenyl)quinoxaline-5-carbonitrile] | 25000 nM | 3571 | 0.13 (WB) uM |  | 7 nM | 6 nM | 2800 nM | 400 |  | 5800 nM | 829 | 11000 nM | > 10000 nM | 
C[C@H](Nc1ncnc(N)c1C#N)c1cc2ccc(F)cc2nc1-c1ccccc1S(C)(=O)=O [Example 2, (S)-4-amino-6-((1-(7-fluoro-2-(2-(methylsulfonyl)phenyl)quinolin-3-yl)ethyl)-amino)pyrimidine-5-carbonitrile] | 7040 nM | 903 | 0.36 uM | 0.26 uM | 7.8 nM | 1.2 nM | 804 nM | 103 | > 10000 nM | 1360 nM | 174 | 811 nM | > 10000 nM | 
